Laboratory results reported in patent publication US12054498B2, “Heteroaromatic macrocyclic ether chemotherapeutic agents” (Nuvalent, Inc., priority 2020, dated 2024).

Legend:
[1] = biological target: T1, ALK-wt (Homo sapiens, UniProt Q9UM73); assay: Biochemical kinase assay, ALK-wt kinase domain; conditions: apparent inhibitory constant, Morrison equation; ATP 2 mM in substrate solution; read-out: ALK-wt Ki^app
T1 construct: purchased Carna 08-518
Description: (§1) First, 250 nL of compound dissolved in DMSO (100-fold of the desired concentration) was dispensed into a 384-well plate. A 12.5 μL substrate solution containing ATP (2 mM) and fluorogenic phosphorylation substrate AQT0101 (26 μM for ALK and ROS1, AssayQuant) or AQT0104 (26 μM for TRKA, AssayQuant) in buffer (50 mM HEPES pH 7.5, 0.01% Brij-35, 0.5 mM EGTA, 10 mM MgCl2) was added and mixed thoroughly. Then, a 12.5 μL kinase solution containing ALK-wt (1.5 nM, Carna, 08-518), ALK ALK L1196M/G1202R (3 nM, SignalChem, A19-12NG), ROS1-wt (0.6 nM, Carna, 08-163), ROS1-G2032R (0.5 nM, SignalChem, R14-12BG), or TRKA-wt (1 nM, BPS Bio, 40280) kinase domains in buffer (50 nM HEPES pH 7.5, 0.01% Brij-35, 2% glycerol, 0.4 mg/mL BSA, 0.5 mM EGTA, and 10 mM MgCl2) was added and mixed thoroughly. The plate was sealed and read by SpectraMax Paradigm at λ=485 nm every 2 minutes for 120 minutes at 30° C. Initial rates of reaction (v) were calculated from the change in fluorescence intensity over time during the initial, linear portion of the reaction. Finally, apparent inhibitory constants (Ki^app) were determined from regression of v and I (inhibitor concentration) to Morrison Equation (E=enzyme concentration): […]

[2] = biological target: T2, ALK L1196M/G1202R (Homo sapiens, UniProt Q9UM73, G1202R/L1196M); assay: Biochemical kinase assay, ALK L1196M/G1202R kinase domain; conditions: apparent inhibitory constant, Morrison equation; ATP 2 mM in substrate solution; read-out: ALK-L1196M-G1202R Ki^app
T2 construct: purchased SignalChem A19-12NG
T2 sequence (Q9UM73 1116-1392 L1196M/G1202R limits assumed): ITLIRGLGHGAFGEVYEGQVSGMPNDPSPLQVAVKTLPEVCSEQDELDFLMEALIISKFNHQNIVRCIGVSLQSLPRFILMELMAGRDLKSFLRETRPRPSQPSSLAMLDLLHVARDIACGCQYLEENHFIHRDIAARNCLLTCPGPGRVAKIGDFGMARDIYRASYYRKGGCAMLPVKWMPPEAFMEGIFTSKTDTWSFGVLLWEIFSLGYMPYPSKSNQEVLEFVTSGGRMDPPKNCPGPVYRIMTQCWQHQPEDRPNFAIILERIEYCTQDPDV
Description: as §1

[3] = biological target: T3, ROS1-wt (Homo sapiens, UniProt P08922); assay: Biochemical kinase assay, ROS1-wt kinase domain; conditions: apparent inhibitory constant, Morrison equation; ATP 2 mM in substrate solution; read-out: ROS1-wt Ki^app
T3 construct: purchased Carna 08-163
T3 sequence (P08922 1945-2222 limits assumed): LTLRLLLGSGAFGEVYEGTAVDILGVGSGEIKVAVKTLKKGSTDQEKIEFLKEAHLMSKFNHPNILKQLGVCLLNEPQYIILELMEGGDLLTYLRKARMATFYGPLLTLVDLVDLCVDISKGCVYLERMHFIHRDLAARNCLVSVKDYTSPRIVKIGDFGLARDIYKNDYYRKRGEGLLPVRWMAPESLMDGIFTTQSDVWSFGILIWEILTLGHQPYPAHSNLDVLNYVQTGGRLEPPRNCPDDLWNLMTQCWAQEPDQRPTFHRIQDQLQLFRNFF
Description: as §1, with “Then, a 12.5 μL kinase solution containing ALK-wt (1.5 nM, Carna, 08-518), ALK ALK L1196M/G1202R (3 nM, SignalChem, A19-12NG), ROS1-wt (0.6 nM, Carna, 08-163), ROS1-G2032R (0.5 nM, SignalChem, R14-12BG), or TRKA-wt (1 nM, BPS Bio, 40280) kinase domains in buffer (50 nM HEPES pH 7.5, 0.01% Brij-35, 2% glycerol, 0.4 mg/mL BSA, 0.5 mM EGTA, and 10 mM MgCl2) was added and mixed thoroughly.” left out

[4] = biological target: T4, ROS1-G2032R (Homo sapiens, UniProt P08922, G2032R); assay: Biochemical kinase assay, ROS1-G2032R kinase domain; conditions: apparent inhibitory constant, Morrison equation; ATP 2 mM in substrate solution; read-out: ROS1-G2032R Ki^app
T4 construct: purchased SignalChem R14-12BG
T4 sequence (P08922 1945-2222 G2032R limits assumed): as the sequence (P08922 1945-2222 limits assumed) above, with G88R counted along it
Description: as §1, with “Then, a 12.5 μL kinase solution containing ALK-wt (1.5 nM, Carna, 08-518), ALK ALK L1196M/G1202R (3 nM, SignalChem, A19-12NG), ROS1-wt (0.6 nM, Carna, 08-163), ROS1-G2032R (0.5 nM, SignalChem, R14-12BG), or TRKA-wt (1 nM, BPS Bio, 40280) kinase domains in buffer (50 nM HEPES pH 7.5, 0.01% Brij-35, 2% glycerol, 0.4 mg/mL BSA, 0.5 mM EGTA, and 10 mM MgCl2) was added and mixed thoroughly.” left out

[5] = biological target: T5, TRKA-wt (Homo sapiens, UniProt P04629); assay: Biochemical kinase assay, TRKA-wt kinase domain; conditions: apparent inhibitory constant, Morrison equation; ATP 2 mM in substrate solution; read-out: TRKA-wt Ki^app
T5 construct: or TRKA-wt (1 nM, BPS Bio, 40280) kinase domains in buffer; purchased BPS Bio 40280
T5 sequence (P04629 510-781 limits assumed): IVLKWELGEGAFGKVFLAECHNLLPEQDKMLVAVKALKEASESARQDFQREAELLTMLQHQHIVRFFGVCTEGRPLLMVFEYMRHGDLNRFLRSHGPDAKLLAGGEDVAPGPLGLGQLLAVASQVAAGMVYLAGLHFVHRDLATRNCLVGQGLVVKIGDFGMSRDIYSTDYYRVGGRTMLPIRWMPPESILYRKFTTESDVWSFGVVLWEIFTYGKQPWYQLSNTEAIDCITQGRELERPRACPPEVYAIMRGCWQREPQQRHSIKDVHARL
Description: as §1

[6] = biological target: T6, Ba/F3 cells CD74-ROS1 wild-type (wt) (Homo sapiens, UniProt P08922); assay: Ba/F3 cell proliferation assay, CD74-ROS1 wild-type; assay type: cell-based; conditions: 72 hours, CellTiter-Glo
T6 construct: fusion of the C-terminus of ROS1 with the N-terminus of various partner proteins; host or cells: Ba/F3 (RIKEN), retroviral pMSCV-puro; the other entry of the earlier key: CD74 (P04233, HLA class II histocompatibility antigen gamma chain)
T6 sequence (P08922 1883-2347 limits assumed): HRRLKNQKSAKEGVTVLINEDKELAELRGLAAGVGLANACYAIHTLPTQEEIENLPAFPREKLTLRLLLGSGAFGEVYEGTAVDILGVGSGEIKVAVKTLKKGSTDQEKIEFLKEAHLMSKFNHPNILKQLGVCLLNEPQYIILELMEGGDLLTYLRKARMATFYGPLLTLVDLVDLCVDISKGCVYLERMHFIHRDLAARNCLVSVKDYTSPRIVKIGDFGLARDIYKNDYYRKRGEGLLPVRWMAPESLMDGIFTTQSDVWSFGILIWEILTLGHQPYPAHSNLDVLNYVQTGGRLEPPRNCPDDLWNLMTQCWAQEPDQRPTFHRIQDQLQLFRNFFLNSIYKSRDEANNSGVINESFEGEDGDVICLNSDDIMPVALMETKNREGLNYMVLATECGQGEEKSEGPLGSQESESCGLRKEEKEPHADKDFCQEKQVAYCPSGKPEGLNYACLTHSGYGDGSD
How it was run: (§2)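 IL-3-independent Ba/F3 CD74-ROS1 lines, puromycin-selected monoclones; 1,000 cells/well, plated 1 d before dosing; 3-fold serial dilutions, 72 h; CellTiter-Glo luminescence; IC50 by 4-parameter logistic regression.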

[7] = biological target: T7, Ba/F3 cells CD74-ROS1 G2032R (Homo sapiens, UniProt P08922, G2032R); assay: Ba/F3 cell proliferation assay, CD74-ROS1 G2032R; assay type: cell-based; conditions: 72 hours, CellTiter-Glo
T7 construct: fusion of the C-terminus of ROS1 with the N-terminus of various partner proteins; host or cells: Ba/F3 (RIKEN), retroviral pMSCV-puro; the other entry of the earlier key: CD74 (P04233, HLA class II histocompatibility antigen gamma chain)
T7 sequence (P08922 1883-2347 G2032R limits assumed): as the sequence (P08922 1883-2347 limits assumed) above, with G150R counted along it
How it was run: as §2

[8] = biological target: T8, Ba/F3 cells EML4-ALK wt (variant 1) (Homo sapiens, UniProt Q9UM73); assay: Ba/F3 cell proliferation assay, EML4-ALK wt (variant 1); assay type: cell-based; conditions: 72 hours, CellTiter-Glo
T8 construct: echinoderm microtubule-associated protein-like 4 (EML4) gene and the ALK tyrosine kinase domain; host or cells: Ba/F3 (RIKEN), retroviral pMSCV-puro; the other entry of the earlier key: EML4 (Q9HC35, Echinoderm microtubule-associated protein-like 4)
T8 sequence (Q9UM73 with tags, fused parts or gaps): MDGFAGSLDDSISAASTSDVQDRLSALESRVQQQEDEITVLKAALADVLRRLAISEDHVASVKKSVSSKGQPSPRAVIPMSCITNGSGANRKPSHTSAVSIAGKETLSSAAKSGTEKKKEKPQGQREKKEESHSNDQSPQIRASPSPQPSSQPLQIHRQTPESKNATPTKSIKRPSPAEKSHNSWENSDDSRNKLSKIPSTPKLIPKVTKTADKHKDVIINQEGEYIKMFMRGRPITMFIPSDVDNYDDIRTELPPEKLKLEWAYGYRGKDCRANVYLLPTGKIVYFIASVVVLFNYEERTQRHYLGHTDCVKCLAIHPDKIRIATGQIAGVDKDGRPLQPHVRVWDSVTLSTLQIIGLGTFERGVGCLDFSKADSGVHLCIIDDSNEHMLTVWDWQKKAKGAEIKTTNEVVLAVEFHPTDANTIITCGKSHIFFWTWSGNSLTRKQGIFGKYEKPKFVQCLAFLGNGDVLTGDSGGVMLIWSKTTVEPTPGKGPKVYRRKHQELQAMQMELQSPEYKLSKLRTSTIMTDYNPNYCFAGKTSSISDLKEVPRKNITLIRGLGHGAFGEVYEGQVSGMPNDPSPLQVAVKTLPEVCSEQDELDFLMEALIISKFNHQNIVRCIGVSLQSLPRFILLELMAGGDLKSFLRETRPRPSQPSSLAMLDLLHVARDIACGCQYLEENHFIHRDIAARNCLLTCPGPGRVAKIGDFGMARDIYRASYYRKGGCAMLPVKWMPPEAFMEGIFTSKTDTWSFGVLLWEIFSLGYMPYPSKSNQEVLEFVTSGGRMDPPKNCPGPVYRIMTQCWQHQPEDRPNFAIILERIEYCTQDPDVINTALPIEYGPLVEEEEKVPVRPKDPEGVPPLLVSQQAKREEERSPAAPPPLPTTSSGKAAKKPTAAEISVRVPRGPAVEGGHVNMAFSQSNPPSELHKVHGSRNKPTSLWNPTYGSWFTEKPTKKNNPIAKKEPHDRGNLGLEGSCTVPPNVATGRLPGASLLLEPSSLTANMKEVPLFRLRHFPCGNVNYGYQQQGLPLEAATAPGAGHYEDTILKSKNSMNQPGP
How it was run: (§3)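 Ba/F3 lines stably expressing the fusion (retroviral pMSCV-puro, selected by IL-3 withdrawal plus puromycin 0.8 μg/mL, monoclonal) were seeded at 1,000 cells/well, dosed next day with 3-fold compound dilutions, and incubated 72 hours. CellTiter-Glo luminescence gave percent inhibition; IC50 by four-parameter logistic fit.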

[9] = biological target: T9, Ba/F3 cells EML4-ALK L1196M/G1202R (variant 1) (Homo sapiens, UniProt Q9UM73, G1202R/L1196M); assay: Ba/F3 cell proliferation assay, EML4-ALK L1196M/G1202R (variant 1); assay type: cell-based; conditions: 72 hours, CellTiter-Glo
T9 construct: echinoderm microtubule-associated protein-like 4 (EML4) gene and the ALK tyrosine kinase domain; host or cells: Ba/F3 (RIKEN), retroviral pMSCV-puro; the other entry of the earlier key: EML4 (Q9HC35, Echinoderm microtubule-associated protein-like 4)
T9 sequence (Q9UM73 with tags, fused parts or gaps L1196M/G1202R): as the sequence (Q9UM73 with tags, fused parts or gaps) above, with L635M, G641R counted along it
How it was run: as §3

[10] = biological target: T10, Ba/F3 cells TPM3-TRKA (Homo sapiens, UniProt P04629); assay: Ba/F3 cell proliferation assay, TPM3-TRKA; assay type: cell-based; conditions: 72 hours, CellTiter-Glo, read-out: TPM3-NTRK1-wt IC50
T10 construct: host or cells: Ba/F3 (RIKEN), retroviral pMSCV-puro; the other entry of the earlier key: TPM3 (P06753, Tropomyosin alpha-3 chain)
T10 sequence (P04629 510-796 limits assumed): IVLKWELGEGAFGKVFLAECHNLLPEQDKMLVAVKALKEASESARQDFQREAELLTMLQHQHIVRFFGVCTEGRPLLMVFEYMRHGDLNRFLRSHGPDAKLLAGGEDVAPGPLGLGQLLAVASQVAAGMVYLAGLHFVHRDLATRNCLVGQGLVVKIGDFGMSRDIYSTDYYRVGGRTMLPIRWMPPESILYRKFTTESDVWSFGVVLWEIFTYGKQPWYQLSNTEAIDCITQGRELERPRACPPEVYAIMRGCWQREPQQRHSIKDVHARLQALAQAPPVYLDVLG
How it was run: as §3

[11] = system: TPM3-NTRK1-wt IC50 / primary target IC50 (e.g. CD74-ROS1-wt); assay: TRKA selectivity in Ba/F3 cells (TRKA potency divided by primary target potency); assay type: cell-based; conditions: for TPM3-NTRK1-wt/CD74-ROS1-G2032R selectivity ratio: TRKA potency / CD74-ROS1-G2032R potency; for TPM3-NTRK1-wt/CD74-ROS1-wt selectivity ratio: TRKA potency / CD74-ROS1-wt potency; for TPM3-NTRK1-wt/EML4-ALK-L1196M-G1202R selectivity ratio: TRKA potency / EML4-ALK-L1196M-G1202R potency; for TPM3-NTRK1-wt/EML4-ALK-wt selectivity ratio: TRKA potency / EML4-ALK-wt potency
Description: TRKA selectivity was calculated by dividing a compound's TRKA potency by its primary target potency (e.g. TPM3-NTRK1-wt IC50/CD74-ROS1-wt IC50). Compound selectivity can be interpreted by binning ratio values: bin A for very high selectivity, ratio >30-fold; bin B for high selectivity, ratio >10-fold; bin C for moderate selectivity, ratio ≥1; and bin D for low selectivity, ratio <1. […] (nd=not determined).

T1 sequence (Q9UM73 1116-1392 limits assumed): as the sequence (Q9UM73 1116-1392 L1196M/G1202R limits assumed) above, with M81L, R87G counted along it

| Structure (SMILES) | Ki [1] [nM] | Ki [2] [nM] | Ki [3] [nM] | Ki [4] [nM] | Ki [5] [nM] | IC50 [6] [nM] | IC50 [7] [nM] | IC50 [8] [nM] | IC50 [9] [nM] | IC50 [10] [nM] | TPM3-NTRK1-wt/CD74-ROS1-G2032R selectivity ratio [11] | TPM3-NTRK1-wt/CD74-ROS1-wt selectivity ratio [11] | TPM3-NTRK1-wt/EML4-ALK-L1196M-G1202R selectivity ratio [11] | TPM3-NTRK1-wt/EML4-ALK-wt selectivity ratio [11] |
| --- | --- | --- | --- | --- | --- | --- | --- | --- | --- | --- | --- | --- | --- | --- |
| CCc1snc2c1-c1cnc(N)c(c1)O[C@H](C)c1cc(F)ccc1-c1nn(C)nc1C2 [Example 87, (19R)-3-ethyl-16-fluoro-10,19-dimethyl-20-oxa-4-thia-5,9,10,11,23-pentaazapentacyclo[19.3.1.0^2,^6.0^8,^12.0^13,^18]pentacosa-1(24),2,5,8,11,13,15,17,21(25),22-decaen-22-amine] | < 50 | 50 to 500 | < 50 | 50 to 500 | > 500 | 0.1 to 50 | 0.1 to 50 | 0.1 to 50 | > 500 | 50 to 500 | B (bin B for high selectivity, ratio >10-fold) | A (bin A for very high selectivity, ratio >30-fold) | D (bin D for low selectivity, ratio <1) | A (bin A for very high selectivity, ratio >30-fold) |
| C[C@H]1Oc2cc(cnc2N)-c2c(C3CCC3)noc2Cc2nn(C)nc2-c2ccc(F)cc21 [Example 26, (19R)-3-cyclobutyl-16-fluoro-10,19-dimethyl-5,20-dioxa-4,9,10,11,23-pentaazapentacyclo[19.3.1.0^2,^6.0^8,^12.0^13,^18]pentacosa-1(24),2(6),3,8,11,13,15,1 7,21(25),22-decaen-22-amine] | < 50 | < 50 | < 50 | < 50 | > 500 | 0.1 to 50 | 0.1 to 50 | 0.1 to 50 | 0.1 to 50 | 50 to 500 | A (bin A for very high selectivity, ratio >30-fold) | A (bin A for very high selectivity, ratio >30-fold) | C (bin C for moderate selectivity, ratio ≥1) | A (bin A for very high selectivity, ratio >30-fold) |
